Data on four compounds can be found in ChEMBL document CHEMBL4732135, “Structural and mechanistic insights into the inhibition of amyloid-β aggregation by Aβ fragment derived synthetic peptides” (Eur J Med Chem, 2021).

The structures appear in SMILES notation. Calls of active or inactive are those of the source. The calls are words filed in the database; no cut-off is given here. Square brackets hold non-standard residues; d marks the D form. Peptide text beside a SMILES is read from it. 1Nal = N[C@@H](Cc1cccc2ccccc12)C(=O)O; NMeF = CN[C@@H](Cc1ccccc1)C(=O)O; NMeI = CC[C@H](C)[C@H](NC)C(=O)O

By inhibition is commonly meant the percentage by which the read-out fell short of the control.

Test system in one data set: not listed separately
Briefly: Effective permeability of compound in pH 8 PBS buffer by PAMPA-BBB assay. It counts as ADME.
Conditions: not given
For orientation: PAMPA measures passive passage across an artificial lipid membrane.
Turning to `CC[C@H](C)[C@@H](C(=O)N[C@@H](C)C(=O)O)N(C)C(=O)[C@@H](NC(=O)[C@@H](N)C(C)C)C(C)C` (H-VV[NMeI]A-OH), the Peff entry is listed as “Permeable”.

In the case of `CC[C@H](C)[C@H](NC(=O)[C@@H](NC(=O)[C@H](Cc1ccccc1)NC)C(C)C)C(=O)N[C@@H](C)C(=O)O` (H-[NMeF]VIA-OH), the Peff entry is “Permeable”.

Another data set has as its target Amyloid-beta precursor protein (Homo sapiens) (UniProt P05067). Description: Binding affinity to amyloid beta (1 to 42) (unknown origin) assessed as absence of fibrillar assembly at 10 uM measured after 24 hrs by STEM analysis.
Conditions: not given
As to `CC[C@H](C)[C@H](NC(=O)[C@@H](NC(=O)[C@@H](N)Cc1cccc2ccccc12)C(C)C)C(=O)N[C@@H](C)C(=O)O` (H-[1Nal]VIA-OH), the outcome was inactive.

For the next data set the target is unchanged. Description: Inhibition of amyloid beta (1 to 42) (unknown origin) assessed as reduction in peptide aggregation at 4 uM measured after 24 hrs by thioflavin-T fluorescence assay relative to control.
Conditions: not given
On to `CC[C@H](C)[C@H](NC(=O)[C@@H](NC(=O)[C@@H](N)C(C)C)C(C)C)C(=O)N[C@@H](CC(=O)O)C(=O)O` (H-VVID-OH), for which the inhibition is 100%.

Turning to `CC[C@H](C)[C@@H](C(=O)N[C@@H](C)C(=O)O)N(C)C(=O)[C@@H](NC(=O)[C@@H](N)C(C)C)C(C)C` (H-VV[NMeI]A-OH), the inhibition was 83.4%.

As to `CC[C@H](C)[C@H](NC(=O)[C@@H](NC(=O)[C@@H](N)Cc1cccc2ccccc12)C(C)C)C(=O)N[C@@H](C)C(=O)O` (H-[1Nal]VIA-OH), the inhibition stood at 23.8%.

As for `CC[C@H](C)[C@H](NC(=O)[C@@H](NC(=O)[C@H](Cc1ccccc1)NC)C(C)C)C(=O)N[C@@H](C)C(=O)O` (H-[NMeF]VIA-OH), the inhibition was 94.3%.

The next data set shares this target. Briefly: Inhibition of amyloid beta (1 to 42) (unknown origin) aggregation assessed as protein with random coil conformation at 10 uM measured after 24 hrs by circular dichroism analysis (reference value: 5%). Further details: scale not given: the % may be the effect or the level left.
Conditions: not given
A general note: Circular dichroism is the unequal absorption of left and right circularly polarised light.
For the compound `CC[C@H](C)[C@H](NC(=O)[C@@H](NC(=O)[C@@H](N)Cc1cccc2ccccc12)C(C)C)C(=O)N[C@@H](C)C(=O)O` (H-[1Nal]VIA-OH), the Activity was determined as 31.6%.

Another data set concerns PC-12. Description: Cytotoxicity against rat PC-12 cells assessed as reduction in cell viability at 20 uM measured after 6 hrs by MTT assay. It counts as cell-based. The note with it: pc-12, 6 h.
Turning to `CC[C@H](C)[C@H](NC(=O)[C@@H](NC(=O)[C@@H](N)C(C)C)C(C)C)C(=O)N[C@@H](CC(=O)O)C(=O)O` (H-VVID-OH), the Activity entry is “Non-Toxic”.

For another data set, the target named is Amyloid-beta precursor protein (Homo sapiens) (UniProt P05067). Description: Inhibition of amyloid beta (1 to 42) (unknown origin) assessed as reduction in peptide aggregation at 2 uM measured after 24 hrs by thioflavin-T fluorescence assay relative to control.
Amyloid-beta precursor protein (Homo sapiens), sequence (P05067 whole entry): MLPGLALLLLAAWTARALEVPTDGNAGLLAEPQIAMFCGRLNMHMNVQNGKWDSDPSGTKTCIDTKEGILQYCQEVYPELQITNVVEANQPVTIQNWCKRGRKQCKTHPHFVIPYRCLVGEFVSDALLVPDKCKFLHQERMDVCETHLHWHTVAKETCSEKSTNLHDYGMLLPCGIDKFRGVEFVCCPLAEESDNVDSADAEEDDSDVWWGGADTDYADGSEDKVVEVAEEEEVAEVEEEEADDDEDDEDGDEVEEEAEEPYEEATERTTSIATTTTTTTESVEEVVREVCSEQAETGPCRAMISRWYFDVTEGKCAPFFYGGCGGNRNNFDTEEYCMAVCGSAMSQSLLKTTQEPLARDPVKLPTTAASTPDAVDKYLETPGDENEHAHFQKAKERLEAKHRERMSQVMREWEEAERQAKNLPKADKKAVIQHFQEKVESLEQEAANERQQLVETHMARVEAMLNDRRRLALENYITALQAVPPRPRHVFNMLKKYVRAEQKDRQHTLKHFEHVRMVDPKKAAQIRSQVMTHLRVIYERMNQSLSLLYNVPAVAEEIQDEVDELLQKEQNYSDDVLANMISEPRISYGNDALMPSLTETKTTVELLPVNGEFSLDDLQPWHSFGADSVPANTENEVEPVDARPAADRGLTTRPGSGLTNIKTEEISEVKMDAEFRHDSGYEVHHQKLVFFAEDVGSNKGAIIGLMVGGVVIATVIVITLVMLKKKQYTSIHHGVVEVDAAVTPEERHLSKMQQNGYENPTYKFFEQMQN
Conditions: not given
With `CC[C@H](C)[C@H](NC(=O)[C@@H](NC(=O)[C@@H](N)C(C)C)C(C)C)C(=O)N[C@@H](CC(=O)O)C(=O)O` (H-VVID-OH), the inhibition turned out to be 82%.

In the case of `CC[C@H](C)[C@@H](C(=O)N[C@@H](C)C(=O)O)N(C)C(=O)[C@@H](NC(=O)[C@@H](N)C(C)C)C(C)C` (H-VV[NMeI]A-OH), the inhibition amounted to 80.6%.

In the case of `CC[C@H](C)[C@H](NC(=O)[C@@H](NC(=O)[C@@H](N)Cc1cccc2ccccc12)C(C)C)C(=O)N[C@@H](C)C(=O)O` (H-[1Nal]VIA-OH), the inhibition came to 34%.

On to `CC[C@H](C)[C@H](NC(=O)[C@@H](NC(=O)[C@H](Cc1ccccc1)NC)C(C)C)C(=O)N[C@@H](C)C(=O)O` (H-[NMeF]VIA-OH), for which the inhibition came out at 84.8%.

The next data set shares this target. Description: Binding affinity to amyloid beta (1 to 42) (unknown origin) assessed as absence of fibrillar assembly at 10 uM measured after 24 hrs by HR-TEM analysis.
Conditions: not given
As to `CC[C@H](C)[C@H](NC(=O)[C@@H](NC(=O)[C@@H](N)Cc1cccc2ccccc12)C(C)C)C(=O)N[C@@H](C)C(=O)O` (H-[1Nal]VIA-OH), the result was inactive.

For the next data set the target is unchanged. Description: Inhibition of amyloid beta (1 to 42) (unknown origin) assessed as reduction in peptide aggregation at 10 uM measured after 24 hrs by thioflavin-T fluorescence assay relative to control.
Conditions: not given
Regarding `CC[C@H](C)[C@H](NC(=O)[C@@H](NC(=O)[C@@H](N)C(C)C)C(C)C)C(=O)N[C@@H](CC(=O)O)C(=O)O` (H-VVID-OH), the inhibition was 100%.

On to `CC[C@H](C)[C@@H](C(=O)N[C@@H](C)C(=O)O)N(C)C(=O)[C@@H](NC(=O)[C@@H](N)C(C)C)C(C)C` (H-VV[NMeI]A-OH), for which the inhibition was 100%.

Regarding `CC[C@H](C)[C@H](NC(=O)[C@@H](NC(=O)[C@@H](N)Cc1cccc2ccccc12)C(C)C)C(=O)N[C@@H](C)C(=O)O` (H-[1Nal]VIA-OH), the inhibition is 29.1%.

For `CC[C@H](C)[C@H](NC(=O)[C@@H](NC(=O)[C@H](Cc1ccccc1)NC)C(C)C)C(=O)N[C@@H](C)C(=O)O` (H-[NMeF]VIA-OH), the inhibition was 100%.

Another data set relates to PC-12. Description: Neuroprotective activity against amyloid beta 42-induced toxicity in rat PC-12 cells assessed as cell viability at 4 uM measured after 6 hrs by MTT assay (reference value: 74.05%). It counts as functional. The note with it: read-out: Activity. On the technique in general: Tetrazolium dyes change colour on reduction, which living cells bring about.
In the case of `CC[C@H](C)[C@H](NC(=O)[C@@H](NC(=O)[C@@H](N)C(C)C)C(C)C)C(=O)N[C@@H](CC(=O)O)C(=O)O` (H-VVID-OH), the viability at 4 µM came to 98.7%.

In the case of `CC[C@H](C)[C@@H](C(=O)N[C@@H](C)C(=O)O)N(C)C(=O)[C@@H](NC(=O)[C@@H](N)C(C)C)C(C)C` (H-VV[NMeI]A-OH), the viability at 4 µM worked out at 92.9%.

Turning to `CC[C@H](C)[C@H](NC(=O)[C@@H](NC(=O)[C@@H](N)Cc1cccc2ccccc12)C(C)C)C(=O)N[C@@H](C)C(=O)O` (H-[1Nal]VIA-OH), the viability at 4 µM worked out at 73.2%.

As for `CC[C@H](C)[C@H](NC(=O)[C@@H](NC(=O)[C@H](Cc1ccccc1)NC)C(C)C)C(=O)N[C@@H](C)C(=O)O` (H-[NMeF]VIA-OH), the viability at 4 µM came out at 81%.

In another data set the test system is PC-12. Briefly: Neuroprotective activity against amyloid beta 42-induced toxicity in rat PC-12 cells assessed as cell viability at 2 uM measured after 6 hrs by MTT assay (reference value: 74.05%). It counts as functional. The note with it: read-out: Activity.
As for `CC[C@H](C)[C@H](NC(=O)[C@@H](NC(=O)[C@@H](N)C(C)C)C(C)C)C(=O)N[C@@H](CC(=O)O)C(=O)O` (H-VVID-OH), the viability at 2 µM was 100%.

With `CC[C@H](C)[C@@H](C(=O)N[C@@H](C)C(=O)O)N(C)C(=O)[C@@H](NC(=O)[C@@H](N)C(C)C)C(C)C` (H-VV[NMeI]A-OH), the viability at 2 µM was 88.4%.

As for `CC[C@H](C)[C@H](NC(=O)[C@@H](NC(=O)[C@@H](N)Cc1cccc2ccccc12)C(C)C)C(=O)N[C@@H](C)C(=O)O` (H-[1Nal]VIA-OH), the viability at 2 µM is 77%.

On to `CC[C@H](C)[C@H](NC(=O)[C@@H](NC(=O)[C@H](Cc1ccccc1)NC)C(C)C)C(=O)N[C@@H](C)C(=O)O` (H-[NMeF]VIA-OH), for which the viability at 2 µM was found to be 86.1%.

The target of another data set is Amyloid-beta precursor protein (Homo sapiens) (UniProt P05067). Briefly: Inhibition of amyloid beta (1 to 42) (unknown origin) aggregation assessed as protein with beta sheet conformation at 10 uM measured after 24 hrs by circular dichroism analysis (reference value: 66.4%).
Conditions: not given
Set-up: scale not given: the % may be the effect or the level left.
Turning to `CC[C@H](C)[C@H](NC(=O)[C@@H](NC(=O)[C@@H](N)Cc1cccc2ccccc12)C(C)C)C(=O)N[C@@H](C)C(=O)O` (H-[1Nal]VIA-OH), the Activity was found to be 18.7%.

The next data set shares this target. Briefly: Inhibition of amyloid beta (1 to 42) (unknown origin) aggregation assessed as protein with turn conformation at 10 uM measured after 24 hrs by circular dichroism analysis (reference value: 11.6%). Set-up: scale not given: the % may be the effect or the level left.
Conditions: not given
On to `CC[C@H](C)[C@H](NC(=O)[C@@H](NC(=O)[C@@H](N)Cc1cccc2ccccc12)C(C)C)C(=O)N[C@@H](C)C(=O)O` (H-[1Nal]VIA-OH), for which the Activity came to 45.3%.

The subject of a further data set is PC-12. Description: Neuroprotective activity against amyloid beta 42-induced toxicity in rat PC-12 cells assessed as cell viability at 10 uM measured after 6 hrs by MTT assay (reference value: 74.05%). It counts as functional. The following applies: read-out: Activity.
As for `CC[C@H](C)[C@H](NC(=O)[C@@H](NC(=O)[C@@H](N)C(C)C)C(C)C)C(=O)N[C@@H](CC(=O)O)C(=O)O` (H-VVID-OH), the viability at 10 µM was 95.8%.

With `CC[C@H](C)[C@@H](C(=O)N[C@@H](C)C(=O)O)N(C)C(=O)[C@@H](NC(=O)[C@@H](N)C(C)C)C(C)C` (H-VV[NMeI]A-OH), the viability at 10 µM stood at 100%.

Turning to `CC[C@H](C)[C@H](NC(=O)[C@@H](NC(=O)[C@@H](N)Cc1cccc2ccccc12)C(C)C)C(=O)N[C@@H](C)C(=O)O` (H-[1Nal]VIA-OH), the viability at 10 µM was 70.6%.

Consider `CC[C@H](C)[C@H](NC(=O)[C@@H](NC(=O)[C@H](Cc1ccccc1)NC)C(C)C)C(=O)N[C@@H](C)C(=O)O` (H-[NMeF]VIA-OH), for which the viability at 10 µM was determined as 100%.

A further data set relates to Cortical neurone. Briefly: Cytotoxicity against rat primary cortical neuron assessed as reduction in cell viability at 20 uM measured after 6 hrs by MTT assay. It counts as cell-based.
Conditions: not given
On to `CC[C@H](C)[C@H](NC(=O)[C@@H](NC(=O)[C@@H](N)C(C)C)C(C)C)C(=O)N[C@@H](CC(=O)O)C(=O)O` (H-VVID-OH), for which the Activity entry was “Non-Toxic”.
